pIC50: −log10 of the molar value. Positions of bridges follow the written chain, without caps; N, C: chain ends. Non-standard residues stand in square brackets, D forms with d. Residues, ends and D or L forms follow the SMILES beside them. *: point of attachment. hPhe(3-Cl-4-CF3) = N[C@@H](CCc1ccc(C(F)(F)F)c(Cl)c1)C(=O)O; NMeGly(cPent) = CN[C@H](C(=O)O)C1CCCC1; Ala(cPent) = N[C@@H](CC1CCCC1)C(=O)O; Gly(cPent) = N[C@H](C(=O)O)C1CCCC1; NMeCha = CN[C@@H](CC1CCCCC1)C(=O)O; NMehLeu = CN[C@@H](CCC(C)C)C(=O)O; NMeChg = CN[C@H](C(=O)O)C1CCCCC1; NMeD = CN[C@@H](CC(=O)O)C(=O)O; NMeL = CN[C@@H](CC(C)C)C(=O)O; NMeNle = CCCC[C@H](NC)C(=O)O; NMeV = CN[C@H](C(=O)O)C(C)C; NMeA = CN[C@@H](C)C(=O)O; Piperidide = C1CCN(*)CC1; Ac5c = NC1(C(=O)O)CCCC1; Aze = O=C(O)[C@@H]1CCN1; Ac4c = NC1(C(=O)O)CCC1; Sar = CNCC(=O)O
Legend:
[1] = target: T1, Kras and SOS1 (biotin-tagged human Kras loaded with GDP, His-tagged human SOS1) (Homo sapiens, UniProt P01116, G12D); assay: Protein-protein interaction inhibition between Kras and SOS1 (KrasGl2D-SOS PPI) using AlphaScreen; format: binding; details: AlphaScreen; biotin-tagged human Kras loaded with GDP, His-tagged human SOS1; read-out: KRAS G12D-SOS PPI IC50
T1 construct: made in house; host or cells: E. coli (stated for Kras only)
How it was run: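 AlphaScreen format: Ni donor beads capture His-SOS1, streptavidin acceptor beads capture biotinylated Kras (E. coli-expressed, GDP-loaded post-purification). Excite 680 nm, read 520-620 nm.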

[2] = tested on: Human pancreatic cancer cell line AsPC-1; assay: Measurement of AsPC-1 cell growth inhibition (AsPC-1 CGI); format: cell-based; details: 96 h
How it was run: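 AsPC-1 cells in 15% FBS RPMI-1640 were exposed to test compound for 96 hours at 37° C, with CellTiter-Glo as endpoint.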

T1 sequence (P01116 1-188 isoform P01116-2 G12D): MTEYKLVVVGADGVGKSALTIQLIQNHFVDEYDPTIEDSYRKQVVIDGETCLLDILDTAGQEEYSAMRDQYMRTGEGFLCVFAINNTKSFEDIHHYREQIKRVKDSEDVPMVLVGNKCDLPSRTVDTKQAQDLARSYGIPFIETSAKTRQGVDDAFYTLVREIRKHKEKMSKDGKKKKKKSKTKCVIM

Row | SMILES | pIC50 [1] | pIC50 [2]
1 | CC[C@H](C)[C@@H]1NC(=O)[C@H](CC(C)C)N(C)C(=O)C[C@@H](C(=O)N2CCCCC2)N(C)C(=O)[C@H](C2CCCCC2)N(C)C(=O)C2(CCC2)NC(=O)[C@@H]2CCCN2C(=O)[C@H](CCc2ccc(C(F)(F)F)c(Cl)c2)NC(=O)CN(C)C(=O)[C@H](CC2CCCCC2)N(C)C(=O)CN(C)C(=O)CN(C)C1=O [Compound 1821] ([NMeL]I[Sar][Sar][NMeCha][Sar][hPhe(3-Cl-4-CF3)]P[Ac4c][NMeChg][NMeD]-Piperidide; lactam N-11) | 9.00 | 7.30 to 7.70
2 | CC(C)C[C@H]1C(=O)N[C@@H](C2CCCC2)C(=O)N(C)CC(=O)N(C)CC(=O)N(C)[C@@H](CC2CCCCC2)C(=O)N(C)CC(=O)N[C@@H](CCc2ccc(C(F)(F)F)c(Cl)c2)C(=O)N2CCC[C@H]2C(=O)NC2(CCCC2)C(=O)N(C)[C@@H](C2CCCCC2)C(=O)N(C)[C@H](C(=O)N2CCCCC2)CC(=O)N1C [Compound 1824] ([NMeL][Gly(cPent)][Sar][Sar][NMeCha][Sar][hPhe(3-Cl-4-CF3)]P[Ac5c][NMeChg][NMeD]-Piperidide; lactam N-11) | 9.12 | 7.00 to 7.30
3 | CC[C@H](C)[C@@H]1NC(=O)[C@H](CC(C)C)N(C)C(=O)C[C@@H](C(=O)N2CCCCC2)N(C)C(=O)[C@H](C(C)C)N(C)C(=O)C2(CCCC2)NC(=O)[C@@H]2CCCN2C(=O)[C@H](CCc2ccc(C(F)(F)F)c(Cl)c2)NC(=O)CN(C)C(=O)[C@H](C2CCCC2)N(C)C(=O)[C@@H]2CCN2C(=O)[C@H](C)N(C)C1=O [Compound 1825] ([NMeL]I[NMeA][Aze][NMeGly(cPent)][Sar][hPhe(3-Cl-4-CF3)]P[Ac5c][NMeV][NMeD]-Piperidide; lactam N-11) | 8.47 | 6.30 to 7.00
4 | CC[C@H](C)[C@@H]1NC(=O)[C@H](CC(C)C)N(C)C(=O)C[C@@H](C(=O)N2CCCCC2)N(C)C(=O)[C@H](C2CCCCC2)N(C)C(=O)C2(CCCC2)NC(=O)[C@@H]2CCCN2C(=O)[C@H](CCc2ccc(C(F)(F)F)c(Cl)c2)NC(=O)CN(C)C(=O)[C@H](C(C)C)N(C)C(=O)CN(C)C(=O)CN(C)C1=O [Compound 1829] ([NMeL]I[Sar][Sar][NMeV][Sar][hPhe(3-Cl-4-CF3)]P[Ac5c][NMeChg][NMeD]-Piperidide; lactam N-11) | 8.82 | 6.30 to 7.00
5 | CC[C@H](C)[C@@H]1NC(=O)[C@H](CC(C)C)N(C)C(=O)C[C@@H](C(=O)N2CCCCC2)N(C)C(=O)[C@H](C2CCCCC2)N(C)C(=O)C2(CCCC2)NC(=O)[C@@H]2CCCN2C(=O)[C@H](CCc2ccc(C(F)(F)F)c(Cl)c2)NC(=O)CN(C)C(=O)[C@H](CCC(C)C)N(C)C(=O)CN(C)C(=O)CN(C)C1=O [Compound 1830] ([NMeL]I[Sar][Sar][NMehLeu][Sar][hPhe(3-Cl-4-CF3)]P[Ac5c][NMeChg][NMeD]-Piperidide; lactam N-11) | 8.80 | 6.30 to 7.00
6 | CCCC[C@H]1C(=O)N(C)CC(=O)N[C@@H](CCc2ccc(C(F)(F)F)c(Cl)c2)C(=O)N2CCC[C@H]2C(=O)NC2(CCCC2)C(=O)N(C)[C@@H](C2CCCCC2)C(=O)N(C)[C@H](C(=O)N2CCCCC2)CC(=O)N(C)[C@@H](CC(C)C)C(=O)N[C@@H]([C@@H](C)CC)C(=O)N(C)CC(=O)N(C)CC(=O)N1C [Compound 1832] ([NMeL]I[Sar][Sar][NMeNle][Sar][hPhe(3-Cl-4-CF3)]P[Ac5c][NMeChg][NMeD]-Piperidide; lactam N-11) | 9.00 | 6.30 to 7.00
7 | CC[C@H](C)[C@@H]1NC(=O)[C@H](C2CCCC2)N(C)C(=O)C[C@@H](C(=O)N2CCCCC2)N(C)C(=O)[C@H](C2CCCCC2)N(C)C(=O)C2(CCCC2)NC(=O)[C@@H]2CCCN2C(=O)[C@H](CCc2ccc(C(F)(F)F)c(Cl)c2)NC(=O)CN(C)C(=O)[C@H](CC2CCCCC2)N(C)C(=O)CN(C)C(=O)CN(C)C1=O [Compound 1835] ([NMeGly(cPent)]I[Sar][Sar][NMeCha][Sar][hPhe(3-Cl-4-CF3)]P[Ac5c][NMeChg][NMeD]-Piperidide; lactam N-11) | 8.96 | 7.00 to 7.30
8 | CC(C)C[C@H]1C(=O)N[C@@H](CC2CCCC2)C(=O)N(C)CC(=O)N(C)CC(=O)N(C)[C@@H](CC2CCCCC2)C(=O)N(C)CC(=O)N[C@@H](CCc2ccc(C(F)(F)F)c(Cl)c2)C(=O)N2CCC[C@H]2C(=O)NC2(CCCC2)C(=O)N(C)[C@@H](C2CCCCC2)C(=O)N(C)[C@H](C(=O)N2CCCCC2)CC(=O)N1C [Compound 1838] ([NMeL][Ala(cPent)][Sar][Sar][NMeCha][Sar][hPhe(3-Cl-4-CF3)]P[Ac5c][NMeChg][NMeD]-Piperidide; lactam N-11) | 8.59 | 6.30 to 7.00

From patent publication US12371454B2, “Cyclic peptide compound having Kras inhibitory action” (priority 2019, dated 2025)
